Here are results for 18 compounds from US20240124417A1, “COMPOUNDS USEFUL AS IMMUNOMODULATORS” (Bristol-Myers Squibb Company, priority 2019, published 2024).

The assay has as its target T1, PD-1/PD-L1 (Homo sapiens, UniProt Q9NZQ7).
T1 construct: TVMV protease site linker (C); made in house; host or cells: HEK293T cells
The assay is described as follows: PD-1/PD-L1 Homogenous Time-Resolved Fluorescence (HTRF) binding assay. To be noted: PD-L1-His 10 nM, PD-1-Ig 20 nM. From the text:
The ability of the compounds of the invention to bind to PD-L1 was investigated using a PD-1/PD-L1 Homogenous Time-Resolved Fluorescence (HTRF) binding assay.
Homogenous Time-Resolved Fluorescence (HTRF) binding assay.
The interaction of PD-1 and PD-L1 can be assessed using soluble, purified preparations of the extracellular domains of the two proteins. The PD-1 and PD-L1 protein extracellular domains were expressed as fusion proteins with detection tags, for PD-1, the tag was the Fc portion of Immunoglobulin (PD-1-Ig) and for PD-L1 it was the 6 histidine motif (PD-L1-His). All binding studies were performed in an HTRF assay buffer consisting of dPBS supplemented with 0.1% […] bovine serum albumin and 0.05% (v/v) Tween-20. For the h/PD-L1-His binding assay, inhibitors were pre-incubated with PD-L1-His (10 nM final) for 15 m in 4 μl of assay buffer, followed by addition of PD-1-Ig (20 nM final) in 1 μl of assay buffer and further incubation for 15 m. HTRF detection was achieved using europium crypate-labeled anti-Ig (1 nM final) and allophycocyanin (APC) labeled anti-His (20 nM final). Antibodies were diluted in HTRF detection buffer and 5 μl was dispensed on top of the binding reaction. […] Additional binding assays were established between the human proteins PD-1-Ig/PD-L2-His (20 & 5 nM, respectively) and CD80-His/PD-L1-Ig (100 & 10 nM, respectively). […]

T1 sequence (Q9NZQ7 18-239): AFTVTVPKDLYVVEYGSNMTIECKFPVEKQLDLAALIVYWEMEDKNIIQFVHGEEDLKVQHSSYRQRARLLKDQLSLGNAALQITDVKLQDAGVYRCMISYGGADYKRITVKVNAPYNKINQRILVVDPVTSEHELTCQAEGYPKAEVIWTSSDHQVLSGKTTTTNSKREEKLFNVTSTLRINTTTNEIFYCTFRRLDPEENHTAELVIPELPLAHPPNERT

A word on the IC50: it is the concentration that gives 50% inhibition. A low value points to higher potency. In turn, `Cc1c(COc2cc(OCc3cncc(C#N)c3)c(CN3CCCCC3c3cc[nH]n3)cc2Cl)cccc1-c1cccc(OCC2CCCN(C)C2)c1Cl` (stereo not drawn) [Example 1021, 5-((2-((2-(1H-Pyrazol-3-yl)piperidin-1-yl)methyl)-4-chloro-5-((2′-chloro-2-methyl-3′-((1-methyl-piperidin-3-yl)methoxy)-[1,1′-biphenyl]-3-yl)methoxy)phenoxy)methyl)-nicotinonitrile] showed an IC50 of 1.8 nM. This lies in the single-digit nanomolar range. The compound `Cc1c(COc2cc(OCc3cncc(C#N)c3)c(CN3CCCCC3c3cnn(C)c3)cc2Cl)cccc1-c1cccc(OCC2CCCN(C)C2)c1Cl` (stereo not drawn) [Example 1022, 5-((4-Chloro-5-((2′-chloro-2-methyl-3′-((1-methylpiperidin-3-yl)methoxy)-[1,1′-biphenyl]-3-yl)methoxy)-2-((2-(1-methyl-1H-pyrazol-4-yl)piperidin-1-yl)methyl)phenoxy)-methyl)nicotinonitrile] returned an IC50 of 1.3 nM. The figure for `Cc1c(COc2cc(OCc3cncc(C#N)c3)c(CN3CCCC(c4cnn(C)c4)C3)cc2Cl)cccc1-c1cccc(OCC2CCCN(C)C2)c1Cl` (stereo not drawn) [Example 1023, 5-((4-Chloro-5-((2′-chloro-2-methyl-3′-((1-methylpiperidin-3-yl)methoxy)-[1,1′-biphenyl]-3-yl)methoxy)-2-((3-(1-methyl-1H-pyrazol-4-yl)piperidin-1-yl)methyl)-phenoxy)methyl)nicotinonitrile] is 0.2 nM; for `Cc1c(COc2cc(OCc3cncc(C#N)c3)c(CN3CCCC(c4ccn[nH]4)C3)cc2Cl)cccc1-c1cccc(OCC2CCCN(C)C2)c1Cl` (stereo not drawn) [Example 1024, 5-((2-((3-(1H-Pyrazol-5-yl)piperidin-1-yl)methyl)-4-chloro-5-((2′-chloro-2-methyl-3′-((1-methylpiperidin-3-yl)methoxy)-[1,1′-biphenyl]-3-yl)methoxy)phenoxy)methyl)-nicotinonitrile] it is 0.7 nM. With `Cc1c(COc2cc(OCc3cncc(C#N)c3)c(CN3CCCC3c3cn[nH]c3)cc2Cl)cccc1-c1cccc(OCC2CCCN(C)C2)c1Cl` (stereo not drawn) [Example 1025, 5-((2-((2-(1H-Pyrazol-4-yl)pyrrolidin-1-yl)methyl)-4-chloro-5-((2′-chloro-2-methyl-3′-((1-methylpiperidin-3-yl)methoxy)-[1,1′-biphenyl]-3-yl)methoxy)phenoxy)methyl)-nicotinonitrile], the IC50 worked out at 0.5 nM. The value for `Cc1c(COc2cc(OCc3cncc(C#N)c3)c(CN3CCCC3c3ccn[nH]3)cc2Cl)cccc1-c1cccc(OCC2CCCN(C)C2)c1Cl` (stereo not drawn) [Example 1026, 5-((2-((2-(1H-Pyrazol-5-yl)pyrrolidin-1-yl)methyl)-4-chloro-5-((2′-chloro-2-methyl-3′-((1-methylpiperidin-3-yl)methoxy)-[1,1′-biphenyl]-3-yl)methoxy)phenoxy)methyl)-nicotinonitrile] was 1.5 nM. The figure for `Cc1n[nH]c(C)c1C(NCc1cc(Cl)c(OCc2cccc(-c3cccc(OCC4CCCN(C)C4)c3Cl)c2C)cc1OCc1cncc(C#N)c1)C(=O)O` (stereo not drawn) [Example 1027, 2-((5-Chloro-4-((2′-chloro-2-methyl-3′-((1-methylpiperidin-3-yl)methoxy)-[1,1′-biphenyl]-3-yl)methoxy)-2-((5-cyanopyridin-3-yl)methoxy)benzyl)amino)-2-(3,5-dimethyl-1H-pyrazol-4-yl)acetic acid] is 1.1 nM; for `Cc1c(COc2cc(OCc3cncc(C#N)c3)c(CNC(C(=O)O)c3cnn(C)c3)cc2Cl)cccc1-c1cccc(OCC2CCCN(C)C2)c1Cl` (stereo not drawn) [Example 1028, 2-((5-Chloro-4-((2′-chloro-2-methyl-3′-((1-methylpiperidin-3-yl)methoxy)-[1,1′-biphenyl]-3-yl)methoxy)-2-((5-cyanopyridin-3-yl)methoxy)benzyl)amino)-2-(1-methyl-1H-pyrazol-4-yl)acetic acid] it is 1.9 nM; for `Cc1c(COc2cc(OCc3cncc(C#N)c3)c(CN3CCC4C(C3)C(CO)=NN4C)cc2Cl)cccc1-c1cccc(OCC2CCCN(C)C2)c1Cl` (stereo not drawn) [Example 1029, 5-((4-Chloro-5-((2′-chloro-2-methyl-3′-((1-methylpiperidin-3-yl)methoxy)-[1,1′-biphenyl]-3-yl)methoxy)-2-((3-(hydroxymethyl)-1-methyl-1,3a,4,6,7,7a-hexahydro-5H-pyrazolo[4,3-c]pyridin-5-yl)methyl)phenoxy)methyl)nicotinonitrile] it is 2 nM. The figure for `Cc1c(COc2cc(OCc3cncc(C#N)c3)c(CN(C)C(C)c3nnn[nH]3)cc2Cl)cccc1-c1cccc(OCCCNC[C@H](O)CO)c1C` (stereo partly drawn) [Example 1030, 5-((2-(((1-(1H-Tetrazol-5-yl)ethyl)(methyl)amino)methyl)-4-chloro-5-((3′-(3-(((S)-2,3-dihydroxypropyl)amino)propoxy)-2,2′-dimethyl-[1,1′-biphenyl]-3-yl)methoxy)-phenoxy)methyl)nicotinonitrile] is 0.2 nM; for `Cc1c(COc2cc(OCc3cncc(C#N)c3)c(CN3CCCCC3c3cn[nH]c3)cc2Cl)cccc1-c1cccc(OCCCNC[C@H](O)CO)c1Cl` (stereo partly drawn) [Example 1032, 5-((2-((2-(1H-Pyrazol-4-yl)piperidin-1-yl)methyl)-4-chloro-5-((2′-chloro-3′-(3-(((S)-2,3-dihydroxypropyl)amino)propoxy)-2-methyl-[1,1′-biphenyl]-3-yl)methoxy)phenoxy)-methyl)nicotinonitrile] it is 0.8 nM; for `Cc1c(COc2cc(OCc3cncc(C#N)c3)c(CN3CCC(c4nnn[nH]4)C3)cc2Cl)cccc1-c1cccc(OCCCNC[C@H](O)CO)c1Cl` (stereo partly drawn) [Example 1033, 5-((2-((3-(1H-Tetrazol-5-yl)pyrrolidin-1-yl)methyl)-4-chloro-5-((2′-chloro-3′-(3-(((S)-2,3-dihydroxypropyl)amino)propoxy)-2-methyl-[1,1′-biphenyl]-3-yl)methoxy)phenoxy)-methyl)nicotinonitrile] it is 2.1 nM. As to `Cc1c(COc2cc(OCc3cncc(C#N)c3)c(CN(C)C(C)c3nnn[nH]3)cc2Cl)cccc1-c1cccc(OCCCNC[C@H](O)CO)c1Cl` (stereo partly drawn) [Example 1034, 5-((2-(((1-(1H-Tetrazol-5-yl)ethyl)(methyl)amino)methyl)-4-chloro-5-((2′-chloro-3′-(3-(((S)-2,3-dihydroxypropyl)amino)propoxy)-2-methyl-[1,1′-biphenyl]-3-yl)methoxy)-phenoxy)methyl)-nicotinonitrile], the IC50 came to 0.4 nM. Compound `Cc1c(COc2cc(OCc3cncc(C#N)c3)c(CN(C)CC(C)c3nnn[nH]3)cc2Cl)cccc1-c1cccc(OCCCNC[C@H](O)CO)c1Cl` (stereo partly drawn) [Example 1035, 5-((2-(((2-(1H-Tetrazol-5-yl)propyl)(methyl)amino)methyl)-4-chloro-5-((2′-chloro-3′-(3-(((S)-2,3-dihydroxypropyl)amino)propoxy)-2-methyl-[1,1′-biphenyl]-3-yl)methoxy)-phenoxy)methyl)nicotinonitrile] showed an IC50 of 1.3 nM. The figure for `CC(=O)NC1CCN(CCCOc2cccc(-c3cccc(COc4cc(OCc5cncc(C#N)c5)c(CNc5nnn[nH]5)cc4Cl)c3C)c2C)CC1` [Example 1036, N-(1-(3-((3′-((4-(((1H-Tetrazol-5-yl)amino)methyl)-2-chloro-5-((5-cyanopyridin-3-yl)-methoxy)phenoxy)methyl)-2,2′-dimethyl-[1,1′-biphenyl]-3-yl)oxy)propyl)piperidin-4-yl)-acetamide] is 4.2 nM; for `CC(=O)NC1CCN(CCCOc2cccc(-c3cccc(COc4cc(OCc5cncc(C#N)c5)c(CN(C)CCc5nn[nH]n5)cc4Cl)c3C)c2C)CC1` [Example 1037, N-(1-(3-((3′-((4-(((2-(2H-Tetrazol-5-yl)ethyl)(methyl)amino)methyl)-2-chloro-5-((5-cyanopyridin-3-yl)methoxy)phenoxy)methyl)-2,2′-dimethyl-[1,1′-biphenyl]-3-yl)oxy)-propyl)piperidin-4-yl)acetamide] it is 2.8 nM. The figure for `CC(=O)NC1CCN(CCCOc2cccc(-c3cccc(COc4cc(OCc5cncc(C#N)c5)c(CN5CCCC(c6ncc[nH]6)C5)cc4Cl)c3C)c2C)CC1` (stereo not drawn) [Example 1038, N-(1-(3-((3′-((4-((3-(1H-Imidazol-2-yl)piperidin-1-yl)methyl)-2-chloro-5-((5-cyano-pyridin-3-yl)methoxy)phenoxy)methyl)-2,2′-dimethyl-[1,1′-biphenyl]-3-yl)oxy)propyl)-piperidin-4-yl)acetamide] is 3.7 nM.

Take `CC(=O)NC1CCN(CCCOc2cccc(-c3cccc(COc4cc(OCc5cncc(C#N)c5)c(CN5CCCC(c6nnc[nH]6)C5)cc4Cl)c3C)c2C)CC1` (stereo not drawn) [Example 1039, N-(1-(3-((3′-((4-((3-(4H-1,2,4-Triazol-3-yl)piperidin-1-yl)methyl)-2-chloro-5-((5-cyano-pyridin-3-yl)methoxy)phenoxy)methyl)-2,2′-dimethyl-[1,1′-biphenyl]-3-yl)oxy)propyl)-piperidin-4-yl)acetamide]: the IC50 was found to be 2.7 nM.
